Several values for one entry are separate records, joined by “and”; a condition that tells them apart may be missing. Equal entries are not always repeated.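 Briefly, cells in 96-well plates were exposed to five compound concentrations for 48 h, and endpoints were estimated by linear interpolation. GI50 marks 50% less growth. TGI is the concentration that stops growth completely.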
Experiments:
Experiment in all cases: growth of human tumour cells (NCI), 48 h
[1] = test system: LOX IMVI melanoma
[2] = test system: RPMI-8226 leukemia
[3] = test system: SNB-19 CNS
[4] = test system: SK-OV-3 ovarian
[5] = test system: U251 CNS
[6] = test system: A549 NSCLC
[7] = test system: MCF7 breast
[8] = test system: OVCAR-8 ovarian
[9] = test system: NCI-H460 lung
[10] = test system: BT-549 breast

| SMILES | GI50 [1] | TGI [1] | GI50 [2] | TGI [2] | GI50 [3] | TGI [3] | GI50 [4] | TGI [4] | GI50 [5] | TGI [5] | GI50 [6] | TGI [6] | GI50 [7] | TGI [7] | GI50 [8] | TGI [8] | GI50 [9] | TGI [9] | TGI [10] |
| --- | --- | --- | --- | --- | --- | --- | --- | --- | --- | --- | --- | --- | --- | --- | --- | --- | --- | --- | --- |
| N#Cc1c(NC(=O)c2ccccc2)sc2c1CCC(=O)C2 | 0.821 µM | 5.97 µM | 0.305 µM | 1.32 µM | 3.48 µM | > 100 µM | 2.33 µM | 14.7 µM | 1.52 µM | 16.9 µM | 6.7 µM | > 100 µM | 0.64 µM | 7.83 µM | 1.27 µM | 45 µM | 2.22 µM | > 100 µM | – |
| NC(Cc1cc(I)c(O)c(I)c1)C(=O)O (stereo not drawn) | – | > 361 µM | – | > 500 µM | – | > 500 µM | – | > 500 µM | – | > 500 µM | – | > 500 µM | – | > 500 µM | – | > 500 µM | – | > 349 µM | – |
| COc1cc2cc(C(=O)N3CC(CCl)c4c3cc(N)c3ccccc43)[nH]c2cc1OCCN(C)C (stereo not drawn) | – | – | – | 0.408 µM | – | – | – | 0.881 µM | – | – | – | 6 µM | – | 6.52 µM | – | 0.0571 µM | – | 8.68 µM | 0.409 µM |
| O=C(Nn1c(-c2ccccc2)nc2ccccc2c1=O)c1ccccn1 | – | > 100 µM | – | > 100 µM | – | > 100 µM | – | > 100 µM | – | > 100 µM | – | > 100 µM | – | – | – | > 100 µM | – | > 100 µM | > 100 µM |
| O=C(C1=C(C(=O)c2ccccc2)SC2(S1)C(C(=O)c1ccccc1)=C(C(=O)c1ccccc1)Sc1c2ssc1=O)c1ccccc1 | – | > 100 µM | – | – | – | 66.5 µM | – | > 100 µM | – | > 100 µM | – | > 100 µM | – | > 100 µM | – | > 100 µM | – | > 100 µM | > 100 µM |
| CCOc1ccc2[nH]c3c(C)c4cc[n+](C)cc4c(C)c3c2c1 | 2.99 µM and 11.4 µM | 19.4 µM and > 67.1 µM | – | > 86.8 µM | 0.297 µM and 0.707 µM | 1.26 µM and 3.37 µM | – | 60.6 µM and 56.3 µM | – | 1.08 µM and 1.15 µM | – | 43.9 µM and > 100 µM | – | – | 0.236 µM and 0.51 µM | 9.87 µM and 11.6 µM | – | 11.5 µM and 12.6 µM | – |
| OC1CCCC1C(O)(C(F)(F)F)C(F)(F)F (stereo not drawn) | – | > 100 µM | – | > 100 µM | – | > 100 µM | – | > 100 µM | – | > 100 µM | – | > 100 µM | – | > 100 µM | – | > 100 µM | – | > 100 µM | – |
| Nc1ccc2c(c1)C(=O)c1ccccc1-2 | – | > 100 µM | – | > 100 µM | – | > 100 µM | – | – | – | > 100 µM | – | > 100 µM | – | > 100 µM | – | > 100 µM | – | > 100 µM | 83.5 µM |
| COc1ccc(/C=C/c2cc(O)cc(OC)c2)cc1 | – | – | – | 78.7 µM | – | > 100 µM | – | > 100 µM | – | > 100 µM | – | > 100 µM | – | > 100 µM | – | > 100 µM | – | > 100 µM | > 100 µM |
| Cc1nc(C)c(C(=O)Nc2cccc3c2C(=O)NC3=O)cc1C(=O)Nc1cccc2c1C(=O)NC2=O | – | > 100 µM | – | > 100 µM | – | > 100 µM | – | > 100 µM | – | > 100 µM | – | > 100 µM | – | – | – | > 100 µM | – | > 100 µM | – |
